# Assay results published in the supplement of paper PMC10307832.
# Legend:
# Assay in all cases: relative viability (nuclei count vs DMSO), 5 days (fraction); higher = more cells survive
# AZD1208 + Alpelisib = compound: N[C@@H]1CCCN(c2c(/C=C3\SC(=O)NC3=O)cccc2-c2ccccc2)C1 [AZD1208] + Cc1nc(NC(=O)N2CCC[C@H]2C(N)=O)sc1-c1ccnc(C(C)(C)C(F)(F)F)c1 [Alpelisib] (partner 2 µM)
# How it was run: (§1)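 Each reported value is a median over duplicate plates. It expresses relative viability: treated-well nuclei count divided by vehicle-well nuclei count. Lung cancer cell lines in 1536-well plates were dosed by pin tool a day after seeding, alone with one drug or with a fixed anchor-drug dose plus five library-drug doses (not always all listed) in √10 steps, and nuclei were counted after 5 days.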
# XMD14-99 + Palbociclib = compound: CN1CCN(CC1)C2=CC(=C(C=C2)NC3=NC(=C(S3)C(=O)C4=C(C=CC=C4Cl)Cl)N)OC [XMD14-99] + CC(=O)c1c(C)c2cnc(Nc3ccc(N4CCNCC4)cn3)nc2n(C2CCCC2)c1=O [Palbociclib] (partner 0.5 µM)
# How it was run: as §1
# AZD1208 + Decitabine = compound: N[C@@H]1CCCN(c2c(/C=C3\SC(=O)NC3=O)cccc2-c2ccccc2)C1 [AZD1208] + Nc1ncn([C@H]2C[C@H](O)[C@@H](CO)O2)c(=O)n1 [Decitabine] (partner 2 µM)
# How it was run: as §1
# XMD14-99 + Pemetrexed = compound: CN1CCN(CC1)C2=CC(=C(C=C2)NC3=NC(=C(S3)C(=O)C4=C(C=CC=C4Cl)Cl)N)OC [XMD14-99] + Nc1nc2[nH]cc(CCc3ccc(C(=O)N[C@@H](CCC(=O)O)C(=O)O)cc3)c2c(=O)[nH]1 [Pemetrexed] (partner 0.2 µM)
# How it was run: as §1
Cell Line,relative viability (AZD1208 + Alpelisib; first compound 0.08 µM),relative viability (AZD1208 + Alpelisib; first compound 0.253 µM),relative viability (AZD1208 + Alpelisib; first compound 0.8 µM),relative viability (AZD1208 + Alpelisib; first compound 2.53 µM),relative viability (AZD1208 + Alpelisib; first compound 8 µM),relative viability (XMD14-99 + Palbociclib; first compound 0.08 µM),relative viability (XMD14-99 + Palbociclib; first compound 0.8 µM),relative viability (XMD14-99 + Palbociclib; first compound 2.53 µM),relative viability (XMD14-99 + Palbociclib; first compound 8 µM),relative viability (AZD1208 + Decitabine; first compound 0.08 µM),relative viability (AZD1208 + Decitabine; first compound 0.253 µM),relative viability (AZD1208 + Decitabine; first compound 0.8 µM),relative viability (AZD1208 + Decitabine; first compound 2.53 µM),relative viability (AZD1208 + Decitabine; first compound 8 µM),relative viability (XMD14-99 + Pemetrexed; first compound 0.08 µM),relative viability (XMD14-99 + Pemetrexed; first compound 0.8 µM),relative viability (XMD14-99 + Pemetrexed; first compound 2.53 µM),relative viability (XMD14-99 + Pemetrexed; first compound 8 µM)
201T,1.04,0.948,0.919,1.04,0.976,0.351,0.368,0.371,0.333,0.886,0.868,0.855,0.97,0.893,0.331,0.356,0.32,0.281
NCI-H2170,0.747,0.8,0.707,0.567,0.52,0.426,0.4,0.425,0.395,0.439,0.498,0.417,0.481,0.369,0.247,0.266,0.251,0.247
NCI-H520,0.848,0.805,0.641,0.896,0.802,0.174,0.186,0.239,0.222,0.566,0.507,0.473,0.456,0.428,0.624,0.625,0.596,0.501
HCC-15,0.742,0.823,0.557,0.664,0.584,0.733,0.765,0.733,0.629,0.612,0.624,0.491,0.576,0.575,0.208,0.218,0.221,0.209
LCLC-103H,0.904,0.985,0.863,0.884,0.774,0.487,0.491,0.421,0.481,0.715,0.654,0.707,0.723,0.743,0.467,0.475,0.426,0.468
NCI-H460,0.502,0.408,0.458,0.46,0.409,0.156,0.21,0.164,0.12,0.458,0.604,0.465,0.495,0.516,0.067,0.066,0.07,0.0715
EPLC-272H,0.938,0.949,0.807,0.807,0.894,0.306,0.299,0.324,0.347,0.412,0.342,0.392,0.364,0.368,0.406,0.335,0.324,0.291
